Measured values as given in patent US8012979B2, “Compounds and their uses 707” (AstraZeneca AB, priority 2007, dated 2011).

The compounds below were run against T1, human active recombinant p38α-6His tagged (Homo sapiens, UniProt Q16539) (assay: p38 Alpha Enzyme Assay (AlphaScreen, biotinylated-ATF2 substrate)). Settings: pre-incubated 4 hours at 37° C., reaction initiated with ATP; 0.5 nM enzyme; read-out: p38 pIC50 (converted).
T1 construct: 6His
Type: biochemical
Description: The ability of the compounds of formula (I) to inhibit p38 kinase may be determined using the following biological assay:
Enzyme assays were performed in polypropylene 96 well plates. The following solutions were added to each well; 10 μL of compound dilutions in assay buffer (20 mM HEPES pH 7.4, containing 20 mM magnesium acetate, 0.005% (w/v) Tween-20, 10 mM DTT) containing 1% (v/v) DMSO or assay buffer containing 1% (v/v) DMSO alone, 70 μL of assay buffer containing 36 nM substrate (biotinylated-ATF2) and 10 μL of an appropriate dilution of human active recombinant p38α-6His tagged. Depending on batch of p38, an appropriate dilution was typically a 5 nM solution to give a final enzyme concentration of 0.5 nM. At this stage, background control wells also received 50 μL of AlphaScreen quench buffer (10 mM HEPES pH 7.4 containing 100 mM EDTA, 0.2% (w/v) bovine serum albumin). The plate was covered, pre-incubated for 4 hours at 37° C. and the enzyme reaction initiated by addition of 10 μL 1 mM ATP. After incubation for a further 45 minutes at 37° C., the reaction was stopped by addition of 50 μL quench reagent and 50 μL of the quenched reaction mixture transferred to an opaque, white 96-well plate. Detection reagent, 25 μL of 10 mM HEPES pH 7.4 containing 100 mM EDTA, 0.2% (w/v) bovine serum albumin, 0.3 nM anti phosphoATF2 antibody and 25 μg/mL of ‘AlphaScreen protein A acceptor and donor beads’ (PerkinElmer Inc.), was added to all wells in a darkened room, the plate sealed and left in the dark for at least 5 hours before AlphaScreen readings were taken using a Perkin Elmer EnVision reader. Total, uninhibited activity was determined from assays performed in each assay plate. The mean control in the absence of p38 activity was subtracted from each well. Data were expressed as percent inhibition of total activity using equation 1. Percent Inhibition=100*(1−Test/Control) Eq.1 Where . . . . • Test=p38 kinase activity in the presence of compound • Control=p38 kinase activity in the absence of compound.
pIC50 is defined as the logarithm of the reciprocal of the concentration of compound required for 50% reduction in total p38 kinase activity.

T1 sequence (Q16539 whole entry): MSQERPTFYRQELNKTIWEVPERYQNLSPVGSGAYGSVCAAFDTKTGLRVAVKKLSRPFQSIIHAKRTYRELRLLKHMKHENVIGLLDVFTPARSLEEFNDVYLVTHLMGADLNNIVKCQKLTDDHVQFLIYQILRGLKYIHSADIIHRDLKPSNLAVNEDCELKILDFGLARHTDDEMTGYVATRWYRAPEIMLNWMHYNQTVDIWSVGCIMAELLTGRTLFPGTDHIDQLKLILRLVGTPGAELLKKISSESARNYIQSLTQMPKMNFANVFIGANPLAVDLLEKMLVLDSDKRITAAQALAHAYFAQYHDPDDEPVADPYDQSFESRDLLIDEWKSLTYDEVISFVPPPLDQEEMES

| SMILES | IC50 |
| --- | --- |
| Cc1ccc(C(=O)NC2CC2)cc1-c1ccc2c(=O)n(Cc3ccncc3)cc(C(=O)N3CCC(N(C)C)CC3)c2c1 [Example 56, N-Cyclopropyl-3-(4-(4-(dimethylamino)piperidine-1-carbonyl)-1-oxo-2-(pyridin-4-ylmethyl)-1,2-dihydroisoquinolin-6-yl)-4-methylbenzamide] | 7.94 nM |
| Cc1ccc(C(=O)NC2CC2)cc1-c1ccc2c(=O)n(Cc3ccccc3)cc(C(=O)NCCN3CCCCC3)c2c1 [Example 48, 2-Benzyl-6-(5-(cyclopropylcarbamoyl)-2-methylphenyl)-1-oxo-N-(2-(piperidin-1-yl)ethyl)-1,2-dihydroisoquinoline-4-carboxamide] | 2.51 nM |
| Cc1ccc(C(=O)NC2CC2)cc1-c1ccc2c(=O)n(CC3CC3)cc(CN3CCCNCC3)c2c1 [Example 70, N-Cyclopropyl-3-(2-cyclopropylmethyl-4-[1,4]diazepan-1-ylmethyl-1-oxo-1,2-dihydro-isoquinolin-6-yl)-4-methyl-benzamide] | 0.158 nM |
| Cc1ccc(C(=O)NC2CC2)cc1-c1ccc2c(=O)n(C(C)c3ccccc3)ccc2c1 (centres unmarked) [Example 121, N-Cyclopropyl-4-methyl-3-(1-oxo-2-(1-phenylethyl)-1,2-dihydroisoquinolin-6-yl)benzamide] | 3.98 nM |
| Cc1ccc(C(=O)NC2CC2)cc1-c1ccc2c(=O)n(Cc3ccc(N4CCN(C)CC4)cc3)ccc2c1 [Example 4, N-Cyclopropyl-4-methyl-3{2-[4-(4-methyl-piperazin-1-yl)-benzyl]-1-oxo-1,2-dihydro-isoquinolin-6-yl}-benzamide] | 1.26 nM |
| Cc1ccc(C(=O)NC2CC2)cc1-c1ccc2c(=O)n(CC3CC3)cc(CN3CCCN(CCO)CC3)c2c1 [Example 72, N-Cyclopropyl-3-(2-(cyclopropylmethyl)-4-((4-(2-hydroxyethyl)-1,4-diazepan-1-yl)methyl)-1-oxo-1,2-dihydroisoquinolin-6-yl)-4-methylbenzamide] | 0.398 nM |
| Cc1ccc(C(=O)NC2CC2)cc1-c1ccc2c(=O)n(Cc3ccccc3)cc(C(=O)N3CCN(CCO)CC3)c2c1 [Example 52, 3-(2-Benzyl-4-{[4-(2-hydroxyethyl)piperazin-1-yl]carbonyl}-1-oxo-1,2-dihydroisoquinolin-6-yl)-N-cyclopropyl-4-methylbenzamide] | 10 nM |
| Cc1ccc(C(=O)NC2CC2)cc1-c1ccc2c(=O)n(Cc3ccc(C4=CCN(C(=O)OC(C)(C)C)CC4)cc3)ccc2c1 [Example 6, 4-{4-[6-(5-Cyclopropylcarbamoyl-2-methyl-phenyl)-1-oxo-1H-isoquinolin-2-ylmethyl]-phenyl}-3,6-dihydro-2H-pyridine-1-carboxylic acid, tert-butyl ester] | 6.31 nM |
| Cc1ccc(C(=O)NC2CC2)cc1-c1ccc2c(=O)n(CC3CC3)cc(CN(C)CCN(C)C)c2c1 [Example 68, N-Cyclopropyl-3-(2-(cyclopropylmethyl)-4-(((2-(dimethylamino)ethyl)(methyl)amino)methyl)-1-oxo-1,2-dihydroisoquinolin-6-yl)-4-methylbenzamide] | 3.98 nM |
| Cc1ccc(C(=O)NC2CC2)cc1-c1ccc2c(=O)n(Cc3ccc(C4CCNCC4)cc3)ccc2c1 [Example 8, N-Cyclopropyl-4-methyl-3-[1-oxo-2-(4-piperidin-4-yl-benzyl)-1,2-dihydro-isoquinolin-6-yl]-benzamide] | 0.501 nM |
| Cc1c(F)cc(C(=O)NC2CC2)cc1-c1ccc2c(=O)n(CC3CC3)cc(CN3CCN[C@@H](CCO)C3)c2c1 [Example 117, (S)—N-Cyclopropyl-3-(2-(cyclopropylmethyl)-4-((3-(2-hydroxyethyl)piperazin-1-yl)methyl)-1-oxo-1,2-dihydroisoquinolin-6-yl)-5-fluoro-4-methylbenzamide] | 0.158 nM |
| Cc1ccc(C(=O)NC2CC2)cc1-c1ccc2c(=O)n(Cc3ccncc3)cc(C(=O)N3CCC(N)CC3)c2c1 [Example 58, 3-(4-(4-Aminopiperidine-1-carbonyl)-1-oxo-2-(pyridin-4-ylmethyl)-1,2-dihydroisoquinolin-6-yl)-N-cyclopropyl-4-methylbenzamide] | 2 nM |
| Cc1ccc(C(=O)NC2CC2)cc1-c1ccc2c(=O)n(Cc3cccc(OCCCN(C)C)c3)cc(C)c2c1 [Example 93, N-Cyclopropyl-3-(2-(3-(3-(dimethylamino)propoxy)benzyl)-4-methyl-1-oxo-1,2-dihydroisoquinolin-6-yl)-4-methylbenzamide] | 2 nM |
| CCNC(=O)c1ccc(C)c(-c2ccc3c(=O)n(Cc4ccccc4)ccc3c2)c1 [Example 2, 3-(2-Benzyl-1-oxo-1,2-dihydro-isoquinolin-6-yl)-N-ethyl-4-methyl-benzamide] | 7.94 nM |
| Cc1ccc(C(=O)NC2CC2)cc1-c1ccc2c(=O)n(Cc3ccc(C(=O)N(C)CCCN(C)C)cc3)ccc2c1 [Example 21, N-Cyclopropyl-3-(2-(4-((3-(dimethylamino)propyl)(methyl)carbamoyl)benzyl)-1-oxo-1,2-dihydroisoquinolin-6-yl)-4-methylbenzamide] | 3.16 nM |
| Cc1c(F)cc(C(=O)NC2CC2)cc1-c1ccc2c(=O)n(CC3CC3)cc(CN3CCCNCC3)c2c1 [Example 92, 3-(4-((1,4-Diazepan-1-yl)methyl)-2-(cyclopropylmethyl)-1-oxo-1,2-dihydroisoquinolin-6-yl)-N-cyclopropyl-5-fluoro-4-methylbenzamide] | 0.1 nM |
| Cc1ccc(C(=O)NC2CC2)cc1-c1ccc2c(=O)n(CC3CC3)cc(C(=O)N3CCN(C)CC3)c2c1 [Example 39, N-Cyclopropyl-3-(2-(cyclopropylmethyl)-4-(4-methylpiperazine-1-carbonyl)-1-oxo-1,2-dihydroisoquinolin-6-yl)-4-methylbenzamide] | 5.01 nM |
| Cc1ccc(C(=O)NC2CC2)cc1-c1ccc2c(=O)n(Cc3ccc(CN(C)C)cc3)c(C)cc2c1 [Example 96, N-Cyclopropyl-3-(2-(4-((dimethylamino)methyl)benzyl)-3-methyl-1-oxo-1,2-dihydroisoquinolin-6-yl)-4-methylbenzamide] | 10 nM |
| Cc1ccc(C(=O)NC2CC2)cc1-c1ccc2c(=O)n(Cc3ccc(OCCN4CCCC4)nc3)ccc2c1 [Example 31, N-Cyclopropyl-4-methyl-3-(1-oxo-2-((6-(2-(pyrrolidin-1-yl)ethoxy)pyridin-3-yl)methyl)-1,2-dihydroisoquinolin-6-yl)benzamide] | 0.631 nM |
| Cc1ccc(C(=O)NC2CC2)cc1-c1ccc2c(=O)n(Cc3ccccc3CN(C)C)ccc2c1 [Example 16, N-Cyclopropyl-3-[2-(2-dimethylaminomethyl-benzyl)-1-oxo-1,2-dihydro-isoquinolin-6-yl]-4-methyl-benzamide] | 50.1 nM |
| Cc1c(F)cc(C(=O)NC2CC2)cc1-c1ccc2c(=O)n(CC3CC3)cc(CN3CCN(C)CC3)c2c1 [Example 76, N-Cyclopropyl-3-(2-(cyclopropylmethyl)-4-((4-methylpiperazin-1-yl)methyl)-1-oxo-1,2-dihydroisoquinolin-6-yl)-5-fluoro-4-methylbenzamide] | 0.1 nM |
| CNCCOc1ccc(Cn2ccc3cc(-c4cc(C(=O)NC5CC5)ccc4C)ccc3c2=O)cc1 [Example 36, N-Cyclopropyl-4-methyl-3-(2-(4-(2-(methylamino)ethoxy)benzyl)-1-oxo-1,2-dihydroisoquinolin-6-yl)benzamide] | 0.398 nM |
| Cc1ccc(C(=O)NC2CC2)cc1-c1ccc2c(=O)n(CC3CCC3)ccc2c1 [Example 124, 3-(2-(Cyclobutylmethyl)-1-oxo-1,2-dihydroisoquinolin-6-yl)-N-cyclopropyl-4-methylbenzamide] | 3.98 nM |
| COc1ccc(Cn2ccc3cc(-c4cc(C(=O)NC5CC5)ccc4C)ccc3c2=O)cc1 [Example 17, N-Cyclopropyl-3-[2-(4-methoxy-benzyl)-1-oxo-1,2-dihydro-isoquinolin-6-yl]-4-methyl-benzamide] | 1 nM |
| Cc1c(F)cc(C(=O)NC2CC2)cc1-c1ccc2c(=O)n(Cc3ccc(S(C)(=O)=O)cc3)cc(CN3CCN[C@@H](CO)C3)c2c1 [Example 113, (R)—N-Cyclopropyl-3-fluoro-5-(4-((3-(hydroxymethyl)piperazin-1-yl)methyl)-2-(4-(methylsulfonyl)benzyl)-1-oxo-1,2-dihydroisoquinolin-6-yl)-4-methylbenzamide] | 0.0794 nM |
| Cc1c(F)cc(C(=O)NC2CC2)cc1-c1ccc2c(=O)n(CC3CC3)cc(CN3CCCN(CCO)CC3)c2c1 [Example 78, N-Cyclopropyl-3-(2-(cyclopropylmethyl)-4-((4-(2-hydroxyethyl)-1,4-diazepan-1-yl)methyl)-1-oxo-1,2-dihydroisoquinolin-6-yl)-5-fluoro-4-methylbenzamide] | 0.158 nM |
